pEC50: −log10 of the molar value. Values belong to the compound of their own block, whether it stands above or below them.
Tests used:
LXRα full length (FL) = biological target: T1, LXRα full length (FL) (Homo sapiens, UniProt Q13133); assay: LXR Gal4 reporter transient transfection assay, mammalian two-hybrid, FL-M2H Gal4α; format: cell-based; conditions: HEK293 cells; inverse agonist unless *
T1 construct: the full length (FL) proteins of LXRα (amino acids 1-447); NP005684; expressed in transfected cells; host or cells: HEK293
T1 sequence (Q13133 1-447): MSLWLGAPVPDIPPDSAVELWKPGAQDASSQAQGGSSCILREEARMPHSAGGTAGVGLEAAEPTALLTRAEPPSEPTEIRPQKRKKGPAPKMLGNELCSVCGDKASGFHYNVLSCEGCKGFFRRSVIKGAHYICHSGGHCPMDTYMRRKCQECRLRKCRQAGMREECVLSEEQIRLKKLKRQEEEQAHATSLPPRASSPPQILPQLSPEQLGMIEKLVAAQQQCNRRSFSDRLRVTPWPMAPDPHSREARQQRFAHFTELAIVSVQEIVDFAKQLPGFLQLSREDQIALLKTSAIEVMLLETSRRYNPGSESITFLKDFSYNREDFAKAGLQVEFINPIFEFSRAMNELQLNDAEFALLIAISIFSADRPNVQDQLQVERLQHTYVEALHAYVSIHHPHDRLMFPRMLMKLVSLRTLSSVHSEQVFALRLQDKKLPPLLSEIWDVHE
In short: (§1)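 HEK293 cells transiently cotransfected with NFkB-AD fusions of full-length or LBD LXRα/β, GAL4-DBD fusions of SRC1 coactivator or NCoR corepressor domains, GAL4-driven firefly luciferase and Renilla control. Compound added 4 h post-transfection (≤0.2% DMSO), 16 h incubation; firefly and Renilla luminescence read sequentially.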

LXRβ full length (FL) = biological target: T2, LXRβ full length (FL) (Homo sapiens, UniProt P55055, INS174Q); assay: LXR Gal4 reporter transient transfection assay, mammalian two-hybrid, FL-M2H Gal4β; format: cell-based; conditions: HEK293 cells; inverse agonist unless *
T2 construct: the full length (FL) proteins of LXRα (amino acids 1-447); NP005684; NP009052; expressed in transfected cells; host or cells: HEK293
T2 sequence (P55055 with tags, fused parts or gaps INS174Q): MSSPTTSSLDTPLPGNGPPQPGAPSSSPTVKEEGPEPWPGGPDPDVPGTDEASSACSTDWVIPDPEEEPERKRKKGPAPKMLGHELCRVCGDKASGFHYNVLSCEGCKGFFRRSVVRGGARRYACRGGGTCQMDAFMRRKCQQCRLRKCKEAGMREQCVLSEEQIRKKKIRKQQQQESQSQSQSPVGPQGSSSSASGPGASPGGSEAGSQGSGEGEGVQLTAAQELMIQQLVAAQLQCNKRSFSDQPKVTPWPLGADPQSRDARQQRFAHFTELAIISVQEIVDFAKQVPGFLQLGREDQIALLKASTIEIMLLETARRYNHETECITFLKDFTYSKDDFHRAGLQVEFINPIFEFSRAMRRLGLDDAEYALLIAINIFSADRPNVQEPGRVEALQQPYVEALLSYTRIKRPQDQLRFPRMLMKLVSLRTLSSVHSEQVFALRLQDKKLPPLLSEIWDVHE
In short: as §1

Compound: Cc1ccc2ccccc2c1C(=O)N(Cc1ccc(-c2cccc([C@@H](C)C(=O)O)c2)cc1)Cc1ccc(C(F)(F)F)o1 [10/5]
pEC50 (LXRα full length (FL)): > 7.00 | pEC50 (LXRβ full length (FL)): > 7.00

Compound: Cc1ccc2ccccc2c1C(=O)N(Cc1ccc(-c2cccc(C(C)(C)C(=O)O)c2)cc1)Cc1ccc(C(F)F)o1 [27/36]
pEC50 (LXRα full length (FL)): > 7.00 | pEC50 (LXRβ full length (FL)): > 7.00

Compound: Cc1ccc2ccccc2c1C(=O)N(Cc1ccc(-c2cccc(C(C)(C)C(=O)O)c2)cc1)Cc1ccc(C#N)o1 [27/38]
pEC50 (LXRα full length (FL)): 6.00 to 7.00 | pEC50 (LXRβ full length (FL)): > 7.00

Compound: COc1cc(-c2cccc(C(C)(C)C(=O)O)c2)ccc1CN(Cc1ccc(C(F)(F)F)o1)C(=O)c1c(C)ccc2ccccc12 [27/66]
pEC50 (LXRα full length (FL)): > 7.00 | pEC50 (LXRβ full length (FL)): > 7.00

Compound: Cc1cc(C)c(C(=O)N(Cc2ccc(-c3cccc(C(C)(C)C(=O)O)c3)cc2)Cc2ccc(C(F)(F)F)o2)c(C)c1 [10/1]
pEC50 (LXRα full length (FL)): > 7.00 | pEC50 (LXRβ full length (FL)): > 7.00

Compound: COc1ccc2c(c1CN(Cc1ccc(-c3cccc(C(C)(C)C(=O)O)c3)cc1)Cc1ccc(C(F)(F)F)o1)CCCC2 [27/17]
pEC50 (LXRα full length (FL)): > 7.00 | pEC50 (LXRβ full length (FL)): > 7.00

Compound: Cc1ccc2ccccc2c1C(=O)N(Cc1ccc(C(F)(F)F)o1)Cc1ccc(-c2cccc(C(C)(C)C(=O)O)c2)cc1C#N [27/7]
pEC50 (LXRα full length (FL)): > 7.00 | pEC50 (LXRβ full length (FL)): > 7.00

Compound: COc1c(C)nc2ccccc2c1C(=O)N(Cc1ccc(-c2cccc(C(C)(C)C(=O)O)c2)cc1)Cc1ccc(C(F)(F)F)o1 [27/81]
pEC50 (LXRα full length (FL)): > 7.00 | pEC50 (LXRβ full length (FL)): > 7.00

Compound: Cc1nc2cccnc2c(C(=O)N(Cc2ccc(-c3cccc(C(C)(C)C(=O)O)c3)cc2)Cc2ccc(C(F)(F)F)o2)c1C [27/93]
pEC50 (LXRα full length (FL)): > 7.00 | pEC50 (LXRβ full length (FL)): > 7.00

Compound: Cc1nc2ccccc2c(C(=O)N(Cc2ccc(-c3cccc(C(C)(C)C(=O)O)c3)cc2)Cc2ccc(C(F)(F)F)o2)c1C [27/79]
pEC50 (LXRα full length (FL)): > 7.00 | pEC50 (LXRβ full length (FL)): > 7.00

Results, then the compound that gave them:

pEC50 (LXRα full length (FL)): > 7.00 | pEC50 (LXRβ full length (FL)): > 7.00
Compound: Cc1ccc2ccccc2c1C(=O)N(Cc1ccc(C(F)(F)F)o1)Cc1ncc(-c2cccc(C(C)(C)C(=O)O)c2)cc1Cl [27/78]

pEC50 (LXRα full length (FL)): > 7.00 | pEC50 (LXRβ full length (FL)): > 7.00
Compound: CCOC(=O)c1ccc(CN(Cc2ccc(-c3cccc(C(C)(C)C(=O)O)c3)cc2)C(=O)c2c(C)ccc3ccccc23)o1 [27/28]

pEC50 (LXRα full length (FL)): > 7.00 | pEC50 (LXRβ full length (FL)): > 7.00
Compound: Cc1ccc2ccccc2c1C(=O)N(Cc1ccc(-c2cc(F)cc(C3(C(=O)O)CC3)c2)cc1)Cc1ccc(C(F)(F)F)o1 [27/76]

pEC50 (LXRα full length (FL)): > 7.00 | pEC50 (LXRβ full length (FL)): > 7.00
Compound: Cc1ccc2ccccc2c1CN(Cc1ccc(-c2cccc(C(C)(C)C(=O)O)c2)cc1)Cc1ccc(C(F)(F)F)o1 [Example 24, 2-Methyl-2-(4′-((((2-methylnaphthalen-1-yl)methyl)((5-(trifluoromethyl)furan-2-yl)methyl)amino)methyl)-[1,1′-biphenyl]-3-yl)propanoic acid]

pEC50 (LXRα full length (FL)): > 7.00 | pEC50 (LXRβ full length (FL)): > 7.00
Compound: CCc1nc2ccccc2c(C(=O)N(Cc2ccc(-c3cccc(C(C)(C)C(=O)O)c3)cc2)Cc2ccc(C(F)(F)F)o2)c1C [27/43]

pEC50 (LXRα full length (FL)): > 7.00 | pEC50 (LXRβ full length (FL)): > 7.00
Compound: COc1ccc2c(c1C(=O)N(Cc1ccc(-c3cccc(C(C)(C)C(=O)O)c3)cc1)Cc1ccc(C(F)(F)F)o1)CCCC2 [27/45]

pEC50 (LXRα full length (FL)): > 7.00 | pEC50 (LXRβ full length (FL)): > 7.00
Compound: Cc1ccc2ccccc2c1C(=O)N(Cc1ccc(-c2cccc(C(C)(C)C(=O)O)c2)cc1)Cc1ccc(C(F)(F)F)o1 [27/26]

pEC50 (LXRα full length (FL)): > 7.00 | pEC50 (LXRβ full length (FL)): > 7.00
Compound: Cc1ccc2ccccc2c1C(=O)N(Cc1ccc(-c2cccc(C(C)(O)C(=O)O)c2)cc1)Cc1ccc(C(F)(F)F)o1 (centres unmarked) [27/10]

pEC50 (LXRα full length (FL)): > 7.00 | pEC50 (LXRβ full length (FL)): > 7.00
Compound: CC(C)(C(=O)O)c1cccc(-c2ccc(CN(Cc3ccc(C(F)(F)F)o3)C(=O)c3c4ccccc4cc4ccccc34)cc2)c1 [27/47]

From US20200131144A1, “AMINE OR (THIO)AMIDE CONTAINING LXR MODULATORS” (Phenex-FXR GmbH, priority 2017, published 2020)
